Key:
mAb ADK8 = assay: Epitope mapping of mAb ADK8 against AAV peptides; format: binding, mice
From the text: Monoclonal antibody ADK8 was generated by immunizing mice with AAV8 capsids. It is directed against the assembled AAV8 capsid (Sonntag et al, 2011). […] Moreover, the binding of AAV8 to the nuclear membrane as well as the nuclear entry were abrogated following neutralization by ADK8. […] ADK8 also cross-reacts with capsid proteins from other AAV serotypes such as AAV1, AAV3, AAV7 (Mietzsch et al, 2014) and was therefore chosen as an example from which general conclusions about the present invention can be drawn.
As for the other antibodies (see examples above), several clusters were identified, delineating regions from which preferred peptides can be deduced. Most preferably, the peptides aligned below according to their binding strengths can be used for selective antibody depletion and detection as hereinabove.

[1] = tested on: IgG from human donors (anti-AAV antibodies); assay: Screen for anti-AAV antibodies in human sera based on cyclic 14-amino-acid AAV peptides on microarrays (Table 2); format: binding; design: key: X: the deduplicated aggregate of the respective top 50 peptide hits for each donor was compiled and designated as group I; conditions: human donor IgG; circularized AAV peptides; top 50 peptide hits for each donor
Description: More than 1200 cyclic peptides derived from the sequences of human and rhesus monkey AAV sequences and artificial AAV sequences according to Table 2 and with a sequence length of 14 amino-acids each were synthesized.
Samples obtained from human donors were screened for antibodies against these AAV-derived peptides immobilized on microarrays. To this end, IgG was prepared from blood obtained from the human donors by protein G purification. Each IgG sample was incubated with the peptide microarrays and Ig binding signals were detected by fluorescence. All antibody binding signals to the peptides on the arrays were background subtracted and ranked for each sample and a deduplicated aggregate of the respective top 250 peptide hits for each donor with the corresponding protein sequence of origin (as obtained from UniProt or other sources) was compiled (designated as group II). Further, the deduplicated aggregate of the respective top 50 peptide hits for each donor was compiled and designated as group I.
Altogether, group I contains 47 distinct peptide hits (assigned to the corresponding AAV vectors in Table 2) and group II yielded 172 distinct peptide hits. Evidently, group I is a subset of group II.

[2] = tested on: IgG from human donors (anti-AAV antibodies); assay: Screen for anti-AAV antibodies in human sera, 2452 linear 15-amino-acid AAV peptides on microarrays (Table 1); format: binding; design: key to group I: X: the deduplicated aggregate of the respective top 10 peptide hits for each donor was compiled and designated as group I; key to group II: X: the deduplicated aggregate of the respective top 25 peptide hits for each donor was compiled and designated as group II; key to group III: X: the deduplicated aggregate of the respective top 50 peptide hits for each donor was compiled and designated as group III; conditions: human donor IgG binding to linear 15-amino-acid AAV peptides on microarray, fluorescence; for group I: membership in deduplicated aggregate of top 10 peptide hits for each donor; for group II: membership in deduplicated aggregate of top 25 peptide hits for each donor; for group III: membership in deduplicated aggregate of top 50 peptide hits for each donor
Method in brief: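 Protein G-purified IgG from human donor blood incubated with microarrays of 2452 linear 15-mer peptides from 16 AAVs; binding read by fluorescence. Background-subtracted signals ranked per donor, with top 10, 25, 50 and 250 hits pooled and deduplicated into groups I-IV.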

mAb 9C12 = assay: Epitope mapping of monoclonal antibody 9C12 against cyclic peptides of the AdV hexon protein (peptide microarray); format: binding, mice; conditions: cyclic 7mer, 10mer, 13mer peptides of AdV hexon
Description: Monoclonal antibody 9C12 (alias mAB TC31-9C12·C9-s) was generated by immunizing mice with the hexon protein (Uniprot ID: P04133 which corresponds to GenBank: BAG48782.1). […] In brief, diluted antibody was incubated with GFP-expressing replication-defective Ad vector and subsequently added to Hela cells followed by fluorescence readout. […] The binding signal of mAb 9C12 to the peptides yielded several candidates that could be aligned and clustered against the protein. An epitopic cluster region of 20 amino acids was identified from which paratope binding peptides can be preferentially derived. Below are the aligments of the corresponding peptide hits from this screen. […] Cyclic peptides were selected out of up to 50 top binders in this experiment.

Substance: 313 (VYLQGPI) [compound 313]
- peptide number according to binding strength (mAb ADK8): 02

Substance: 315 (DVYLQGP) [compound 315]
- peptide number according to binding strength (mAb ADK8): 05

Substance: 317 (LQGPIWA) [compound 317]
- peptide number according to binding strength (mAb ADK8): 12

Substance: 318 (RDVYLQG) [compound 318]
- peptide number according to binding strength (mAb ADK8): 20

Substance: 321 (FGYSTPWGYF) [compound 321]
- peptide number according to binding strength (mAb ADK8): 09

Substance: 322 (GYSTPWGYFD) [compound 322]
- peptide number according to binding strength (mAb ADK8): 10

Substance: 323 (YSTPWGYFDF) [compound 323]
- peptide number according to binding strength (mAb ADK8): 11

Substance: 325 (TPWGYFDFNRFHC) [compound 325]
- peptide number according to binding strength (mAb ADK8): 18

Substance: 328 (YFGYSTPWGY) [compound 328]
- peptide number according to binding strength (mAb ADK8): 28

Substance: 329 (FGYSTPWGYFDFN) [compound 329]
- peptide number according to binding strength (mAb ADK8): 34

Substance: 330 (NWLPGPC) [compound 330]
- peptide number according to binding strength (mAb ADK8): 04

Substance: 331 (WLPGPCY) [compound 331]
- peptide number according to binding strength (mAb ADK8): 15

Substance: 336 (GCLPPFP) [compound 336]
- peptide number according to binding strength (mAb ADK8): 13

Substance: 337 (VLGSAHQGCLPPF) [compound 337]
- peptide number according to binding strength (mAb ADK8): 27

Substance: 338 (LPYVLGSAHQGCL) [compound 338]
- peptide number according to binding strength (mAb ADK8): 32

Substance: 339 (YVLGSAHQGC) [compound 339]
- peptide number according to binding strength (mAb ADK8): 37

Substance: 340 (CLPPFPA) [compound 340]
- peptide number according to binding strength (mAb ADK8): 38

Substance: 341 (SAHQGCLPPF) [compound 341]
- peptide number according to binding strength (mAb ADK8): 39

Substance: 342 (VLGSAHQGCL) [compound 342]
- peptide number according to binding strength (mAb ADK8): 45

Substance: 343 (PYVLGSAHQGCLP) [compound 343]
- peptide number according to binding strength (mAb ADK8): 46

Substance: 344 (GRSSFYC) [compound 344]
- peptide number according to binding strength (mAb ADK8): 14

Substance: 345 (AVGRSSFYCLEYF) [compound 345]
- peptide number according to binding strength (mAb ADK8): 22

Substance: 346 (AVGRSSFYCL) [compound 346]
- peptide number according to binding strength (mAb ADK8): 24

Substance: 347 (QAVGRSSFYCLEY) [compound 347]
- peptide number according to binding strength (mAb ADK8): 33

Substance: 348 (NGSQAVGRSSFYC) [compound 348]
- peptide number according to binding strength (mAb ADK8): 35

Substance: 349 (DQYLYYL) [compound 349]
- peptide number according to binding strength (mAb ADK8): 19

Substance: 350 (PLIDQYLYYL) [compound 350]
- peptide number according to binding strength (mAb ADK8): 29

Substance: 351 (IDQYLYY) [compound 351]
- peptide number according to binding strength (mAb ADK8): 36

Substance: 1929 (TESVPDPQPIGEPP; REGION 1..14: note = peptide derived from viral capsid protein) [compound 1929]
- group I [1]: X

Substance: 1932 (DEEEIKATNPVATE; REGION 1..14: note = peptide derived from viral capsid protein) [compound 1932]
- group I [1]: X

Substance: 1933 (DKDKFFPMSGVMIF; REGION 1..14: note = peptide derived from viral capsid protein) [compound 1933]
- group I [1]: X

Substance: 1934 (LQQQNTAPQIGTVN; REGION 1..14: note = peptide derived from viral capsid protein) [compound 1934]
- group I [1]: X

Substance: 1935 (EEEIKTTNPVATEE; REGION 1..14: note = peptide derived from viral capsid protein) [compound 1935]
- group I [1]: X

Substance: 1937 (DDEDKFFPMSGVMI; REGION 1..14: note = peptide derived from viral capsid protein) [compound 1937]
- group I [1]: X

Substance: 1938 (PLVDQYLYRFVSTN; REGION 1..14: note = peptide derived from viral capsid protein) [compound 1938]
- group I [1]: X

Substance: DAEFQERLKEDTSF (REGION 1..14: note = peptide derived from viral capsid protein) [SEQ ID NO: 1975]
- group I [2]: X
- group II [2]: X
- group III [2]: X
- ranked binding signal obtained from the microarray (01 binds strongest) (mAb 9C12): 08

Substance: DDEEKFFPMHGNLI [SEQ ID NO: 1976]
- group I [2]: X
- group II [2]: X
- group III [2]: X
- ranked binding signal obtained from the microarray (01 binds strongest) (mAb 9C12): 09

Substance: DGHFHPSPLMGGFG (REGION 1..14: note = peptide derived from viral capsid protein) [SEQ ID NO: 1977]
- group I [2]: X
- group II [2]: X
- group III [2]: X
- ranked binding signal obtained from the microarray (01 binds strongest) (mAb 9C12): 10

Substance: DSESVPDPQPLGEP (REGION 1..14: note = peptide derived from viral capsid protein) [SEQ ID NO: 1978]
- group I [2]: X
- group II [2]: X
- group III [2]: X
- ranked binding signal obtained from the microarray (01 binds strongest) (mAb 9C12): 11

Substance: EEEIRTTNPVATEQ (REGION 1..14: note = peptide derived from viral capsid protein) [SEQ ID NO: 1979]
- group I [2]: X
- group II [2]: X
- group III [2]: X
- ranked binding signal obtained from the microarray (01 binds strongest) (mAb 9C12): 12

Substance: EEIRTTNPVATEQY (REGION 1..14: note = peptide derived from viral capsid protein) [SEQ ID NO: 1980]
- group I [2]: X
- group II [2]: X
- group III [2]: X
- ranked binding signal obtained from the microarray (01 binds strongest) (mAb 9C12): 13

Substance: FQERLKEDTSFGGN (REGION 1..14: note = peptide derived from viral capsid protein) [SEQ ID NO: 1981]
- group I [2]: X
- group II [2]: X
- group III [2]: X
- ranked binding signal obtained from the microarray (01 binds strongest) (mAb 9C12): 14

Substance: GADGVGNSSGNWHC (REGION 1..14: note = peptide derived from viral capsid protein) [SEQ ID NO: 1982]
- group I [2]: X
- group II [2]: X
- group III [2]: X
- ranked binding signal obtained from the microarray (01 binds strongest) (mAb 9C12): 15

Substance: GDSESVPDPQPLGE [SEQ ID NO: 1983]
- group I [2]: X
- group II [2]: X
- group III [2]: X
- ranked binding signal obtained from the microarray (01 binds strongest) (mAb 9C12): 16

Substance: GNGLDKGEPVNAAD [SEQ ID NO: 1984]
- group I [2]: X
- group II [2]: X
- group III [2]: X
- ranked binding signal obtained from the microarray (01 binds strongest) (mAb 9C12): 17

Substance: KKRPVDQSPQEPDS (REGION 1..14: note = peptide derived from viral capsid protein) [SEQ ID NO: 1985]
- group I [2]: X
- group II [2]: X
- group III [2]: X
- ranked binding signal obtained from the microarray (01 binds strongest) (mAb 9C12): 18

Reference: patent US20250213707A1, “COMPOUND FOR INCREASING EFFICACY OF ONCOLYTIC VIRUSES” (ABLEVIA BIOTECH GMBH, priority 2022, published 2025)
